{
  "source": "patent US20220008350A1",
  "about": "“PROCESS FOR ENGINEERING TARGETED NANOPARTICLES” (University of North Texas Health Science Center, priority 2018, published 2022)",
  "key": {"[1]": {"tested_on": "integrin αVβ3 surface expression in C4-2B prostate cancer cells", "assay": "αVβ3 protein stimulation and verification (immunocytochemistry)", "type": "cell-based, human", "details": "C4-2B cells, 200 ng/mL CXCL12, after first hour, constant for 12 hours", "protocol": "αVβ3 Protein Stimulation and Verification. C4-2B cells were grown on glass coverslips in a six-well dish and then stimulated to express αVβ3 by treatment with 200 ng/mL of recombinant human CXCL12 (R&D Systems, Minneapolis, Minn.) for 1, 6, or 12 hours at 37° C. After cells were stimulated they were rinsed with PBS, fixed with 4% formaldehyde (Affymetrix) for 10 min at room temperature, washed twice with PBS, and blocked for 1 hour with 1% BSA in PBS. Next cells were incubated for 4 hours with a 1:100 dilution of anti-integrin αVβ3 antibody, clone LM609 (Millipore). Incubation was followed by three washes with PBS, and then incubated for 45 minutes with a 1:200 dilution of the goat anti-mouse IgG (H+L) secondary antibody, Alexa Fluor 488 conjugate (Life Technologies). Cells were washed twice more and mounted on slides with Prolong Gold antifade reagent with DAPI (Invitrogen). Fluorescent images were taken with Olympus AX70 Florescent Microscope."}, "[2]": {"assay": "In vivo bone retention (intraosseous injection)", "details": "injected into mouse tibia, live animal imaging up to 72 hours, NIR dye", "protocol": "In vivo bone retention. […] Animals were imaged initially and at time points: 1 hour, 24 hours, 48 hours, and 72 hours to assess for NIR signal on IVIS animal imager. Fluorescent signal was quantified at each time and compared to the signal for the initial time point of each mouse to give the percentage of retained nanoparticle in the bone. Additionally, half-life of nanoparticle signal in the bone was calculated with the following equation: N(t)=N0(½)^(t/t1/2)."}, "[3]": {"molecular_target": "ATP-dependent drug efflux pump glycoprotein (P-gp) (Homo sapiens, UniProt P08183)", "sequence (P08183 whole entry)": "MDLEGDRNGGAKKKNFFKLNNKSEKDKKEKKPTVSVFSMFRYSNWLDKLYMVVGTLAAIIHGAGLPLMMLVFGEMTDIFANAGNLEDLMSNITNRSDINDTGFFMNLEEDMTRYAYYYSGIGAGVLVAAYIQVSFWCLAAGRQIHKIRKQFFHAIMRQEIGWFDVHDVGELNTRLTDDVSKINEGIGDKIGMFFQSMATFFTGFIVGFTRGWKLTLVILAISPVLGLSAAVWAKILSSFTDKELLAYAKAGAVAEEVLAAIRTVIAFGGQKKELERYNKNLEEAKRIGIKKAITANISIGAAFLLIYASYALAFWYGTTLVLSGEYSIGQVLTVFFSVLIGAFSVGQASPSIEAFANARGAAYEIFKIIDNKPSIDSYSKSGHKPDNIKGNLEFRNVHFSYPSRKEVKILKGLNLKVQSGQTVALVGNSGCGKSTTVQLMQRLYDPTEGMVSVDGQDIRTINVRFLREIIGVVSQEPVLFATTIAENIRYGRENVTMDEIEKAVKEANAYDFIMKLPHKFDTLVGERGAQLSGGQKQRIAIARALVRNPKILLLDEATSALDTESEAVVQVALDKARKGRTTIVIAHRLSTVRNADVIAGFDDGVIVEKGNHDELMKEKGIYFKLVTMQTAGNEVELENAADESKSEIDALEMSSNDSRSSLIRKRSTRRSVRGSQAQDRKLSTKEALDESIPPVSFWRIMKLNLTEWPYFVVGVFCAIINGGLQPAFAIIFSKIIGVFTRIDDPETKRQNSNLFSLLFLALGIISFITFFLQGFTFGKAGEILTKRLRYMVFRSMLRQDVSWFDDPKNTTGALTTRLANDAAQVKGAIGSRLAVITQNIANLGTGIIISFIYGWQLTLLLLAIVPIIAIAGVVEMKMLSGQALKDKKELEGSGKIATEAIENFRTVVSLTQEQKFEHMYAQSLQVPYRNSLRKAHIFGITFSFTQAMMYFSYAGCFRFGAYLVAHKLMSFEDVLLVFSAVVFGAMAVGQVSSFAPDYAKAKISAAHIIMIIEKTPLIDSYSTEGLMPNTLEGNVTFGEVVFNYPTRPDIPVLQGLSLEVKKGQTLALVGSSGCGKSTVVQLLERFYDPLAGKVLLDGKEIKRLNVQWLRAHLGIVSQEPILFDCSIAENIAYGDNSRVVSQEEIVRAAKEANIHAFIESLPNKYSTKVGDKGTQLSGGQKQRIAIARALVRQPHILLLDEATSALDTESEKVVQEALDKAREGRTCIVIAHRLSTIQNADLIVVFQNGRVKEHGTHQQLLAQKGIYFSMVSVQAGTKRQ", "details": "cited from earlier work"}},
  "data": [
    {"molecule": "C-X-C motif chemokine ligand 12 [CXCL12]", "values": [
      {"measurement": "increase in expression level of αVβ3", "setting": "[1]", "result": "approximately 2 fold"}
    ]},
    {"molecule": "CCCN1C(=CC=C2CCCC(C=CC3=[N+](CCC)c4ccccc4C3(C)C)=C2Cl)C(C)(C)c2ccccc21.[I-]", "note": "[dye, IR-780 dye]", "values": [
      {"measurement": "retention and half-life in the bone", "setting": "[2]", "result": "equivalent regarding retention in the bone"}
    ]},
    {"molecule": "CO[C@H]1C(=O)[C@]2(C)[C@@H](OC)C[C@H]3OC[C@@]3(OC(C)=O)[C@H]2[C@H](OC(=O)c2ccccc2)[C@]2(O)C[C@H](OC(=O)[C@H](O)[C@@H](NC(=O)OC(C)(C)C)c3ccccc3)C(C)=C1C2(C)C", "note": "[Cabazitaxel]", "values": [
      {"measurement": "substrate affinity for P-gp", "setting": "[3]", "result": "lower substrate affinity"}
    ]}
  ]
}
